Results taken from patent US20030166290A1, “Low formaldehyde producing blood diluent” (priority 2002, published 2003).

Test: Formaldehyde production in test blood diluents containing antimicrobial agents (EPA Method 8315A)
Type: physicochemical
Settings: when employed in the blood diluent of the invention
Description: Diluent components into which the listed antimicrobials were added were:
Each test diluent was assayed for formaldehyde production within about two weeks from time of production to determine if formaldehyde is produced. Different lots of the final diluent formulation were monitored for formaldehyde concentration over a year's time. […] This method entails derivitizing the diluent sample with 2,4-dinitrophenylhydrazine to convert the carbonyl groups of aldehydes present to the hydrazones. Each carbonyl compound present in the sample forms a separate hydrazone derivative and these individual derivatives are extracted from the diluent solution using an organic solvent. The individual hydrazone derivatives are separated and quantified by HPLC (High Performance Liquid Chromatography).

formaldehyde produced or contained: ≤ 1 ppm
Compound: O=[N+]([O-])C1(Br)COCOC1 [5-bromo-5-nitro-1,3-dioxane]
